According to ChEMBL document CHEMBL4017477, “Synthesis and evaluation of 4,6-disubstituted pyrimidines as CNS penetrant pan-muscarinic antagonists with a novel chemotype” (Bioorg Med Chem Lett, 2017):
pIC50, pKi: −log10 of the molar value. Values belong to the compound of their own block, whether it stands above or below them.

Tests used:
[1] = biological target: T1, Muscarinic acetylcholine receptor M4 (Homo sapiens) (UniProt P08173); assay: Antagonist activity at recombinant human M4 receptor expressed in CHO cells co-expressing Gqi5 by calcium mobilization assay relative to acetylcholine; format: functional, cell-based
T1 sequence (whole entry): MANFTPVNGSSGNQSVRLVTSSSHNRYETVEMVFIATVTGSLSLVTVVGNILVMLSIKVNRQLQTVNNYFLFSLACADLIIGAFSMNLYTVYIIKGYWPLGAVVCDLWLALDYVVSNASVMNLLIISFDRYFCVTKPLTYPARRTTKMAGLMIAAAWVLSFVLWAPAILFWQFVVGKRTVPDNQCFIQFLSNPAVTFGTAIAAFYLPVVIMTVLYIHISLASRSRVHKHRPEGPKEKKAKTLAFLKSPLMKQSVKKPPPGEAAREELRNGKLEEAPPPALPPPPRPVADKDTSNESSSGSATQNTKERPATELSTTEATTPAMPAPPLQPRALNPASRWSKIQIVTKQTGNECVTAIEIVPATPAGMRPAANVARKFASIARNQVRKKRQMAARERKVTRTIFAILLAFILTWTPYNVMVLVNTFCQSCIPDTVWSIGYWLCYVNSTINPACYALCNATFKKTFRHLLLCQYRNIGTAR

[2] = biological target: T2, Muscarinic acetylcholine receptor M4 (Homo sapiens, UniProt P08173); assay: Antagonist activity at recombinant human M4 receptor expressed in CHO cells co-expressing Gqi5 by calcium mobilization assay; format: functional, cell-based; settings: for pIC50: read-out: IC50; for IC50: read-out: pIC50 (converted)
T2 sequence (P08173 whole entry): T1 sequence (whole entry)

[3] = biological target: T2, Muscarinic acetylcholine receptor M4; assay: Displacement of [3H]-NMS from recombinant human M4 receptor expressed in CHO cell membranes
[4] = biological target: T3, Muscarinic acetylcholine receptor M3 (Homo sapiens, UniProt P20309); assay: Antagonist activity at recombinant human M3 receptor expressed in CHO cells co-expressing Gqi5 by calcium mobilization assay relative to acetylcholine; format: functional, cell-based
Target sequence in this assay (P20309 whole entry, looked up): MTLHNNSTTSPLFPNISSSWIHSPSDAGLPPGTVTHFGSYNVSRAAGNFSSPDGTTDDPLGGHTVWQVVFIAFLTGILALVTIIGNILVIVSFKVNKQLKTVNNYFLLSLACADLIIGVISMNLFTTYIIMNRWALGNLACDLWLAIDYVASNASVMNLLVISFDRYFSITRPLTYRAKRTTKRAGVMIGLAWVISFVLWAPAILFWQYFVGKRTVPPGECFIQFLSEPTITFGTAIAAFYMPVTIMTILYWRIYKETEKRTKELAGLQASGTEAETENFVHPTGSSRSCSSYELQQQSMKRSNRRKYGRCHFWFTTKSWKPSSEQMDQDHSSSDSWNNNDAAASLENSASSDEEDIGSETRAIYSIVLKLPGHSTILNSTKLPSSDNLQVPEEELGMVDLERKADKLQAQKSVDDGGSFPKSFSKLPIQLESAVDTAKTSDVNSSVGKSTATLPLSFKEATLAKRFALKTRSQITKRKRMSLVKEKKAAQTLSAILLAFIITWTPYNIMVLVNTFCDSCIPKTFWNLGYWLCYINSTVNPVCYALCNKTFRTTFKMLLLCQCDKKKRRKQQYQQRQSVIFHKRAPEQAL

[5] = biological target: T4, Muscarinic acetylcholine receptor M2 (Homo sapiens) (UniProt P08172); assay: Antagonist activity at recombinant human M2 receptor expressed in CHO cells co-expressing Gqi5 by calcium mobilization assay relative to acetylcholine; format: functional, cell-based
T4 sequence (whole entry): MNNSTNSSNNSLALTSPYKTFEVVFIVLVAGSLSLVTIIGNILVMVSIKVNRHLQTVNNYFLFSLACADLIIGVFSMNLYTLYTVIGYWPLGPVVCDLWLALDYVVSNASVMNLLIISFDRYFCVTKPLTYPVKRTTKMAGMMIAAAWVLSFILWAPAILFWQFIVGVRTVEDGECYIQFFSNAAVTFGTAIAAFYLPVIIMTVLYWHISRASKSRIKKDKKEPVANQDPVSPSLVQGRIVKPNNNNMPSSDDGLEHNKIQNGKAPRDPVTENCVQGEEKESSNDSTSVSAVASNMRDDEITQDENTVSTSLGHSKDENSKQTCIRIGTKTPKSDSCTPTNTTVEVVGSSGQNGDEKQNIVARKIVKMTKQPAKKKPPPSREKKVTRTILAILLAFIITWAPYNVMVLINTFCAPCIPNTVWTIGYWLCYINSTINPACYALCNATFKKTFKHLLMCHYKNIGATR

[6] = biological target: T3, Muscarinic acetylcholine receptor M3; assay: Antagonist activity at recombinant human M3 receptor expressed in CHO cells co-expressing Gqi5 by calcium mobilization assay; format: functional, cell-based
Target sequence in this assay (P20309 whole entry): as the sequence (P20309 whole entry, looked up) above

[7] = biological target: T5, Muscarinic acetylcholine receptor M1 (Homo sapiens) (UniProt P11229); assay: Antagonist activity at recombinant human M1 receptor expressed in CHO cells co-expressing Gqi5 by calcium mobilization assay relative to acetylcholine; format: functional, cell-based
T5 sequence (whole entry): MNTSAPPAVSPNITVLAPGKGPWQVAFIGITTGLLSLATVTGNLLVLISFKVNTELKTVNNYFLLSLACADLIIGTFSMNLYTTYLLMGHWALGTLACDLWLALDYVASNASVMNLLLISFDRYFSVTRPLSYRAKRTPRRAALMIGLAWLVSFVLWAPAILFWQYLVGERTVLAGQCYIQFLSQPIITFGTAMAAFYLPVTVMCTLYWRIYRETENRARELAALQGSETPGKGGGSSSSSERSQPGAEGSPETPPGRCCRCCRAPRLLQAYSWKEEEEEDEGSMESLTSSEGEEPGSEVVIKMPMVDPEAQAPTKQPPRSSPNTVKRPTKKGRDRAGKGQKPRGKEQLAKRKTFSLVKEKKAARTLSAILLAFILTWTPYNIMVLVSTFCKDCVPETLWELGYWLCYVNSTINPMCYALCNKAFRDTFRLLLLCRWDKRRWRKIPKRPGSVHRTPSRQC

[8] = biological target: T6, Muscarinic acetylcholine receptor M2 (Homo sapiens, UniProt P08172); assay: Antagonist activity at recombinant human M2 receptor expressed in CHO cells co-expressing Gqi5 by calcium mobilization assay; format: functional, cell-based
T6 sequence (P08172 whole entry): T4 sequence (whole entry)

[9] = biological target: T7, Muscarinic acetylcholine receptor M1 (Homo sapiens, UniProt P11229); assay: Antagonist activity at recombinant human M1 receptor expressed in CHO cells co-expressing Gqi5 by calcium mobilization assay; format: functional, cell-based
T7 sequence (P11229 whole entry): T5 sequence (whole entry)

[10] = biological target: T8, Muscarinic acetylcholine receptor M5 (Homo sapiens) (UniProt P08912); assay: Antagonist activity at recombinant human M5 receptor expressed in CHO cells co-expressing Gqi5 by calcium mobilization assay relative to acetylcholine; format: functional, cell-based
T8 sequence (whole entry): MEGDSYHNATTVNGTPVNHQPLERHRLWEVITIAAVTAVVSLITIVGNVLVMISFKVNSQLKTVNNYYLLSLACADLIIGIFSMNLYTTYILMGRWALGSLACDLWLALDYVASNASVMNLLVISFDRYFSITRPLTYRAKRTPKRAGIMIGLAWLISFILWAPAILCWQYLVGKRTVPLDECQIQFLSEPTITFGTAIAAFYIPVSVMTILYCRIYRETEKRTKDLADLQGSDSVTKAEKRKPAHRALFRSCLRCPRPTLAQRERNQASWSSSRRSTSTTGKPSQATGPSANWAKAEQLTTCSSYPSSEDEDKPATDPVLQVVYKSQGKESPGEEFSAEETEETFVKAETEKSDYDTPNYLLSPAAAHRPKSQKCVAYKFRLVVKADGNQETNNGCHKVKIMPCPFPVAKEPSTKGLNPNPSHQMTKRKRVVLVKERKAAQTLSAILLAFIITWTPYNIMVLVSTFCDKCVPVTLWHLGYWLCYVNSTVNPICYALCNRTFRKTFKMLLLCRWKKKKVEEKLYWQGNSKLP

[11] = biological target: T9, Muscarinic acetylcholine receptor M5 (Homo sapiens, UniProt P08912); assay: Antagonist activity at recombinant human M5 receptor expressed in CHO cells co-expressing Gqi5 by calcium mobilization assay; format: functional, cell-based
T9 sequence (P08912 whole entry): T8 sequence (whole entry)

[12] = Brain to plasma partition coefficient, Kp of the compound in rat; format: ADME; settings: brain/plasma, read-out: Kp
[13] = Ratio of unbound brain to plasma concentration in rat; format: ADME; settings: brain/plasma, read-out: K(p,uu,brain)

Emin [1]: 6.8%
Compound: O=C(C1CCN(c2cc(Oc3ccc4ccccc4c3)ncn2)CC1)N1CCc2ccccc2C1

pIC50 [2]: 6.62 | IC50 [2]: 229 nM | Emin [1]: 3.5%
Compound: O=C(C1CCN(c2cc(Oc3ccc(F)cc3)ncn2)CC1)N1CCc2ccccc2C1

pIC50 [2]: 6.19 | IC50 [2]: 617 nM | Emin [1]: 2.7%
Compound: O=C(C1CCN(c2cc(Oc3ccccc3)ncn2)CC1)N1CCc2ccccc2C1

pIC50 [2]: 6.51 | Emin [1]: 3.2%
Compound: O=C(C1CCN(c2cc(Oc3cccc(F)c3)ncn2)CC1)N1CCc2ccccc2C1

pKi [3]: 7.99 | Emin [4]: < 6% | Emin [5]: < 6% | pIC50 [6]: 6.42 | pIC50 [2]: 7.00 | Emin [7]: < 6% | pIC50 [8]: 6.48 | pIC50 [9]: 6.60 | Emin [1]: 3% | Emin [10]: < 6% | pIC50 [11]: 6.29
Compound: O=C(C1CCN(c2cc(Oc3ccc(F)cc3F)ncn2)CC1)N1CCc2ccccc2C1

Emin [4]: < 6% | Emin [5]: < 6% | pIC50 [6]: 6.44 | pIC50 [2]: 6.85 | IC50 [2]: 132 nM | Emin [7]: < 6% | pIC50 [8]: 6.45 | pIC50 [9]: 6.50 | Emin [1]: 3% | Emin [10]: < 6% | pIC50 [11]: 6.16
Compound: O=C(C1CCN(c2cc(Oc3ccc(Cl)cc3)ncn2)CC1)N1CCc2ccccc2C1

Kp [12]: 0.68 | Kp uu [13]: 0.75 | Emin [4]: < 6% | Emin [5]: < 6% | pIC50 [6]: 6.39 | pIC50 [2]: 6.89 | IC50 [2]: 123 nM | Emin [7]: < 6% | pIC50 [8]: 6.42 | pIC50 [9]: 6.49 | Emin [1]: 3.2% | Emin [10]: < 6% | pIC50 [11]: 6.14
Compound: O=C(C1CCN(c2cc(Oc3ccccc3F)ncn2)CC1)N1CCc2ccccc2C1

Continued, compound first:

Compound: O=C(C1CCN(c2cc(Oc3c(F)cccc3F)ncn2)CC1)N1CCc2ccccc2C1
Emin [1]: 7%

Compound: O=C(C1CCN(c2cc(Oc3ccc(Cl)cc3Cl)ncn2)CC1)N1CCc2ccccc2C1
pIC50 [2]: 6.57 | Emin [1]: 3%

Compound: CN(Cc1ccccc1)C(=O)C1CCN(c2cc(Oc3ccc(F)cc3F)ncn2)CC1
pIC50 [2]: < 5.00

Compound: O=C(C1CCN(c2cc(Oc3cccc(F)c3F)ncn2)CC1)N1CCc2ccccc2C1
pIC50 [2]: 6.72 | IC50 [2]: 170 nM | Emin [1]: 3.1%

Compound: O=C(C1CCN(c2cc(Oc3cc(F)ccc3F)ncn2)CC1)N1CCc2ccccc2C1
pIC50 [2]: 7.10 | Emin [1]: 3.1%
